Experimental data: US7166738B2, “Non-nucleoside reverse transcriptase inhibitors” (Roche Palo Alto LLC, priority 2004, dated 2007)

Row | SMILES | melting point [°C]
1 | N#Cc1cccc(Oc2cc(CC(=O)Nc3ccc(S(N)(=O)=O)cc3)cc3ccoc23)c1 [Compound I-144, 2-[7-(3-Cyano-phenoxy)-benzofuran-5-yl]-N-(4-sulfamoyl-phenyl)-acetamide] | 196.4 to 198.7
2 | Cc1cc(S(N)(=O)=O)ccc1NC(=O)Cc1cc(Oc2cccc(C#N)c2)c2occc2c1 [Compound I-145, 2-[7-(3-Cyano-phenoxy)-benzofuran-5-yl]-N-(2-methyl-4-sulfamoyl-phenyl)-acetamide] | 218.9 to 220
3 | Cc1cc(CC(=O)Nc2ccc(S(N)(=O)=O)cc2)cc(Oc2cc(C#N)ccc2Cl)c1 [Compound I-146, 2-[3-(2-Chloro-5-cyano-phenoxy)-5-methyl-phenyl]-N-(4-sulfamoyl-phenyl)-acetamide] | 235.9 to 236.7
4 | Cc1cc(CC(=O)Nc2ccc(S(N)(=O)=O)cc2Cl)cc(Oc2cc(C#N)ccc2Cl)c1 [Compound I-148, 2-[3-(2-Chloro-5-cyano-phenoxy)-5-methyl-phenyl]-N-(2-chloro-4-sulfamoyl-phenyl)-acetamide] | 212.9 to 214.4
5 | NS(=O)(=O)c1ccc(NC(=O)Cc2cc(Oc3cc(Cl)cc(Cl)c3)c3occc3c2)c(Cl)c1 [Compound I-149, N-(2-Chloro-4-sulfamoyl-phenyl)-2-[7-(3,5-dichloro-phenoxy)-benzofuran-5-yl]-acetamide] | 215.1 to 216.6
6 | Cc1cc(OCC[C@@H](O)CO)ccc1NC(=O)Cc1ccc(C)c(Oc2cc(Cl)cc(C#N)c2)c1 [Compound I-151, 2-[3-(3-Chloro-5-cyano-phenoxy)-4-methyl-phenyl]-N-[4-((R)-3,4-dihydroxy-butoxy)-2-methyl-phenyl]-acetamide] | 104.9 to 106.4
7 | CCC(=O)N(C)S(=O)(=O)c1ccc(NC(=O)Cc2ccc(Cl)c(Oc3cc(Cl)cc(C#N)c3)c2F)c(Cl)c1 [Compound I-162, 2-[4-Chloro-3-(3-chloro-5-cyano-phenoxy)-2-fluoro-phenyl]-N-[2-chloro-4-(methyl-propionyl-sulfamoyl)-phenyl]-acetamide] | 198.2 to 200.6
8 | CNS(=O)(=O)c1ccc(NC(=O)Cc2ccc(Cl)c(Oc3cc(Cl)cc(C#N)c3)c2F)c(Cl)c1 [Compound I-168, 2-[4-Chloro-3-(3-chloro-5-cyano-phenoxy)-2-fluoro-phenyl]-N-(2-chloro-4-methylsulfamoyl-phenyl)-acetamide] | 199.1 to 200
9 | COCC(=O)N(C)S(=O)(=O)c1ccc(NC(=O)Cc2ccc(Cl)c(Oc3cc(Cl)cc(C#N)c3)c2F)c(Cl)c1 [Compound I-171, 2-[4-Chloro-3-(3-chloro-5-cyano-phenoxy)-2-fluoro-phenyl]-N-{2-chloro-4-[(2-methoxy-acetyl)-methyl-sulfamoyl]-phenyl}-acetamide] | 183.2 to 185.5
10 | COCCC(=O)N(C)S(=O)(=O)c1ccc(NC(=O)Cc2ccc(Cl)c(Oc3cc(Cl)cc(C#N)c3)c2F)c(Cl)c1 [Compound I-172, 2-[4-Chloro-3-(3-chloro-5-cyano-phenoxy)-2-fluoro-phenyl]-N-{2-chloro-4-[(3-methoxy-propionyl)-methyl-sulfamoyl]-phenyl}-acetamide] | 199.3 to 203
11 | Cc1cc(S(N)(=O)=O)ccc1NC(=O)Cc1ccc(Cl)c(Oc2cc(Br)cc(C#N)c2)c1F [Compound I-185, 2-[3-(3-Bromo-5-cyano-phenoxy)-4-chloro-2-fluoro-phenyl]-N-(2-methyl-4-sulfamoyl-phenyl)-acetamide] | 246 to 250.6
12 | Cc1cc(S(N)(=O)=O)ccc1NC(=O)Cc1ccc(Cl)c(Oc2cc(C#N)cc(C#CCO)c2)c1F [Compound I-186, 2-{4-Chloro-3-[3-cyano-5-(3-hydroxy-prop-1-ynyl)-phenoxy]-2-fluoro-phenyl}-N-(2-methyl-4-sulfamoyl-phenyl)-acetamide] | 170.1 to 173.2
13 | Cc1cc(S(N)(=O)=O)ccc1NC(=O)Cc1ccc(Cl)c(Oc2cc(C#N)cc(C#CCN(C)C)c2)c1F [Compound I-187, 2-{4-Chloro-3-[3-cyano-5-(3-dimethylamino-prop-1-ynyl)-phenoxy]-2-fluoro-phenyl}-N-(2-methyl-4-sulfamoyl-phenyl)-acetamide] | 156.2 to 158.2
14 | N#Cc1cc(Cl)cc(Oc2c(Cl)ccc(CC(=O)Nc3ccc(S(=O)(=O)NC(=O)CCC(=O)O)cc3Cl)c2F)c1 [Compound I-188, 4-(3-Chloro-4-{2-[4-chloro-3-(3-chloro-5-cyano-phenoxy)-2-fluoro-phenyl]-acetylamino}-benzenesulfonylamino)-4-oxo-butyric acid] | 143.4 to 144
15 | COc1ccc(CC(=O)Nc2ccc(S(N)(=O)=O)cc2Cl)c(F)c1Oc1cc(Cl)cc(C#N)c1 [Compound I-190, 2-[3-(3-Chloro-5-cyano-phenoxy)-2-fluoro-4-methoxy-phenyl]-N-(2-chloro-4-sulfamoyl-phenyl)-acetamide] | 212 to 212.8

Further lines, results first:

Row | melting point [°C] | SMILES
16 | 184.8 to 186 | Cc1cc(CC(=O)Nc2ccc(S(N)(=O)=O)cc2C)cc(Oc2cc(Cl)cc(C#N)c2)c1 [Compound I-142, 2[3-(3-Chloro-5-cyano-phenoxy)-5-methyl-phenyl]-N-(2-methyl-4-sulfamoyl-phenyl)-acetamide]
17 | 194.1 to 195.9 | Cc1cc(CC(=O)Nc2ccc(S(N)(=O)=O)cc2Cl)cc(Oc2cc(Cl)cc(C#N)c2)c1 [Compound I-143, 2-[3-(3-Chloro-5-cyano-phenoxy)-5-methyl-phenyl]-N-(2-chloro-4-sulfamoyl-phenyl)-acetamide]
18 | 200.3 to 201.1 | Cc1cc(CC(=O)Nc2ccc(S(N)(=O)=O)cc2C)cc(Oc2cc(C#N)ccc2Cl)c1 [Compound I-147, 2-[3-(2-Chloro-5-cyano-phenoxy)-5-methyl-phenyl]-N-(2-methyl-4-sulfamoyl-phenyl)-acetamide]
19 | 137.5 to 138.4 | Cc1cc(OC[C@@H](O)CO)ccc1NC(=O)Cc1ccc(C)c(Oc2cc(Cl)cc(C#N)c2)c1 [Compound I-150, 2-[3-(3-Chloro-5-cyano-phenoxy)-4-methyl-phenyl]-N-[4-((S)-2,3-dihydroxy-propoxy)-2-methyl-phenyl]-acetamide]
20 | 180.5 to 181.4 | Cc1cc(S(=O)(=O)CC(=O)O)ccc1NC(=O)Cc1ccc(C)c(Oc2cc(Cl)cc(C#N)c2)c1 [Compound I-152, (4-{2-[3-(3-Chloro-5-cyano-phenoxy)-4-methyl-phenyl]-acetylamino}-3-methyl-benzenesulfonyl)-acetic acid]
21 | 92.4 to 95.5 | Cc1cc(S(=O)(=O)CCN)ccc1NC(=O)Cc1ccc(C)c(Oc2cc(Cl)cc(C#N)c2)c1 [Compound I-154, N-[4-(2-Amino-ethanesulfonyl)-2-methyl-phenyl]-2-[3-(3-chloro-5-cyano-phenoxy)-4-methyl-phenyl]-acetamide]
22 | 78.9 to 79.5 | Cc1cc(S(=O)(=O)CCCO)ccc1NC(=O)Cc1ccc(C)c(Oc2cc(Cl)cc(C#N)c2)c1 [Compound I-157, 2-[3-(3-Chloro-5-cyano-phenoxy)-4-methyl-phenyl]-N-[4-(3-hydroxy-propane-1-sulfonyl)-2-methyl-phenyl]-acetamide]
23 | 84.3 to 85.6 | Cc1cc(N2CCCCS2(=O)=O)ccc1NC(=O)Cc1ccc(C)c(Oc2cc(Cl)cc(C#N)c2)c1 [Compound I-158, 2-[3-(3-Chloro-5-cyano-phenoxy)-4-methyl-phenyl]-N-[4-(1,1-dioxo-1λ^6-[1,2]thiazinan-2-yl)-2-methyl-phenyl]-acetamide]
24 | 62.3 to 64.1 | Cc1cc(C(=O)CN2CCN(C)CC2)ccc1NC(=O)Cc1ccc(C)c(Oc2cc(Cl)cc(C#N)c2)c1 [Compound I-159, 2-[3-(3-Chloro-5-cyano-phenoxy)-4-methyl-phenyl]-N-{2-methyl-4-[2-(4-methyl-piperazin-1-yl)-acetyl]-phenyl}-acetamide]
25 | 181.3 to 182.1 | Cc1cc(N2CC[S+]([O-])CC2)ccc1NC(=O)Cc1ccc(C)c(Oc2cc(Cl)cc(C#N)c2)c1 [Compound I-160, 2-[3-(3-Chloro-5-cyano-phenoxy)-4-methyl-phenyl]-N-[2-methyl-4-(1-oxo-1λ^4-thiomorpholin-4-yl)-phenyl]-acetamide]
26 | 64.8 to 65.4 | Cc1cc(N2CCS(=O)(=O)CC2)ccc1NC(=O)Cc1ccc(C)c(Oc2cc(Cl)cc(C#N)c2)c1 [Compound I-161, 2-[3-(3-Chloro-5-cyano-phenoxy)-4-methyl-phenyl]-N-[4-(1,1-dioxo-1λ^6-thiomorpholin-4-yl)-2-methyl-phenyl]-acetamide]
27 | 182.5 to 184.6 | Cc1cc(N2CCCS2(=O)=O)ccc1NC(=O)Cc1ccc(C)c(Oc2cc(Cl)cc(C#N)c2)c1 [Compound I-170, 2-[3-(3-Chloro-5-cyano-phenoxy)-4-methyl-phenyl]-N-[4-(1,1-dioxo-1λ^6-isothiazolidin-2-yl)-2-methyl-phenyl]-acetamide]
28 | 182.5 to 183.9 | CCOC(=O)C(=O)Nc1ccc(NC(=O)Cc2ccc(C)c(Oc3cc(Cl)cc(C#N)c3)c2)c(C)c1 [Compound I-178, N-(4-{2-[3-(3-Chloro-5-cyano-phenoxy)-4-methyl-phenyl]-acetylamino}-3-methyl-phenyl)-oxalamic acid ethyl ester]
29 | 229.7 to 231.3 | Cc1cc(CC(=O)Nc2ccc(S(N)(=O)=O)cc2)cc(Oc2cc(Cl)cc(C#N)c2)c1C [Compound I-182, 2-[3-(3-Chloro-5-cyano-phenoxy)-4,5-dimethyl-phenyl]-N-(4-sulfamoyl-phenyl)-acetamide]
30 | 230.8 to 233.4 | Cc1cc(S(N)(=O)=O)ccc1NC(=O)Cc1cc(C)c(C)c(Oc2cc(Cl)cc(C#N)c2)c1 [Compound I-183, 2-[3-(3-Chloro-5-cyano-phenoxy)-4,5-dimethyl-phenyl]-N-(2-methyl-4-sulfamoyl-phenyl)-acetamide]
31 | 224.3 to 225.7 | Cc1cc(CC(=O)Nc2ccc(S(N)(=O)=O)cc2Cl)cc(Oc2cc(Cl)cc(C#N)c2)c1C [Compound I-184, 2-[3-(3-Chloro-5-cyano-phenoxy)-4,5-dimethyl-phenyl]-N-(2-chloro-4-sulfamoyl-phenyl)-acetamide]
32 | 239.9 to 240.8 | COc1ccc(CC(=O)Nc2ccc(S(N)(=O)=O)cc2C)c(F)c1Oc1cc(Cl)cc(C#N)c1 [Compound I-191, 2-[3-(3-Chloro-5-cyano-phenoxy)-2-fluoro-4-methoxy-phenyl]-N-(2-methyl-4-sulfamoyl-phenyl)-acetamide]
